Results reported in patent US11259522B2, “Control of resistant pests” (priority 2017, dated 2022).
≈ marks a conversion by molar mass, not a printed value. Where “and” joins values, the source holds several entries; their conditions need not be identical. Equal entries are not always repeated.

Key:
[1] = test system: Rhyzopertha dominica susceptible strain QRD14; experiment: Grain protectant bioassay on treated wheat, susceptible lesser grain borer; format: in vivo; details: for 14 day Adult Mortality No. dead/total / F1 Progeny count No. dead/total: Example 8, QQRD14, replicates A, B, C; for Progeny reduction (%): vs untreated control
Description: The experiment of Example 5 was repeated using a laboratory reared susceptible strain QQRD14 of R. dominica and different concentrations of flavesone to determine efficacy.

[2] = test system: Sitophilus oryzae susceptible strain LS2; experiment: Grain protectant bioassay on treated wheat, S. oryzae susceptible; format: in vivo; details: for Progeny reduction (%): vs untreated control
[3] = test system: Tribolium castaneum strain QTC279 (resistant to malathion and bioresmethrin); experiment: Grain protectant bioassay on treated wheat, T. castaneum resistant; format: in vivo; details: for Progeny reduction (%): vs untreated control
[4] = test system: Tribolium castaneum susceptible strain QTC4; experiment: Grain protectant bioassay on treated wheat, T. castaneum susceptible; format: in vivo; details: for Progeny reduction (%): vs untreated control
[5] = test system: M. persicae (green peach aphid) insecticide-susceptible population; experiment: Leaf dip bioassay, green peach aphid, susceptible population; format: in vivo, Myzus persicae; details: Susceptible population, 96 hours exposure
Experimental: Each colony was maintained separately on bok choi plants ([…]) within an exclusion cage in a constant temperature room at 24° C. with a photoperiod of 16:8 LD.
Laboratory bioassays were used to determine the efficacy of flavesone against M. persicae following the leaf dip method described in Moores et al. (1994, Pesticide Biochemistry and Physiology, 49, 114-120). A pilot study was first conducted which confirmed that the leaf dip method was appropriate to elicit a clear dose response for Flavocide 500EW against M. persicae, and to determine the appropriate rate range and timing of mortality assessments (scored at 24, 48, 72 & 96 hours) (data not shown).
Bioassays were then conducted to assess the efficacy of flavesone against a susceptible and resistant population of M. persicae, and to calculate LC values. The efficacy of a conventional insecticide, pirimicarb, was tested for comparison. Nine concentrations of flavesone ranging from 1×10^−3 to 10 times the proposed field rate (Table 15), and six concentrations of pirimicarb were serially diluted and tested, along with a water control, against the susceptible and resistant aphid populations. Leaf discs (25 mm diameter) cut from bok choi leaves were submerged for 1 second in the insecticide solutions, or in the water control, and placed adaxial side up on 10 g/L agar in 35 mm petri dishes. Six replicate leaf discs were prepared per treatment. Once leaves were air-dry, eight M. persicae nymphs were transferred to each insecticide-dipped leaf disc using a fine-haired paintbrush.
After aphid introduction, each petri dish was inverted onto a lid containing a 25 mm diameter filter paper to control humidity. All petri dishes were then placed into an incubator held at 18° C.±2° C. with a photoperiod of 16:8 LD cycle. At 48 & 96 hours, aphids were scored as alive (vibrant and moving freely), dead (not moving over a 5 second period), or incapacitated (inhibited movement).
Dose-response curves were generated by plotting percentage mortality against log concentration. Mortality data was analysed using a logistic regression model with random effects. Logistic regression is suited for the analysis of binary response data (i.e. dead/alive) with the random effect component of the model controlling for the non-independence of mortality scores within replicates. […] Population differences were tested by comparing the change in model deviance with and without the population factor (different regression intercepts for each population). Differences in regression slopes between populations were tested by comparing the change in model deviance with and without the population×dose interaction term.

[6] = test system: Sitophilus oryzae strain QSO393 (resistant to fenitrothion); experiment: Grain protectant bioassay on treated wheat, S. oryzae resistant; format: in vivo; details: for Progeny reduction (%): vs untreated control
[7] = Sitophilus oryzae, 336 h, 25 mg/kg, 2 weeks, mean ± SE, read-out: Adult mortality (%)
[8] = Sitophilus oryzae, 336 h, 60 mg/kg, 2 weeks, mean ± SE, read-out: Adult mortality (%)
[9] = Tribolium castaneum, 336 h, 25 mg/kg, 2 weeks, mean ± SE, read-out: Adult mortality (%)
[10] = Tribolium castaneum, 336 h, 60 mg/kg, 2 weeks, mean ± SE, read-out: Adult mortality (%)

For `CC(C)C(=O)C1C(=O)C(C)(C)C(=O)C(C)(C)C1=O` [Flavesone, 1-isobutyroyl-3,3,5,5-tetramethylcyclohexane-2,4,6-trione], the “14 day Adult Mortality No. dead/total” value ([1]; 5 ppm on wheat) was 0/50, the “F1 Progeny count No. dead/total” value ([1]; 5 ppm on wheat) was 4/930 and 4/999 and 1/866 and the “14 day Adult Mortality No. dead/total” value ([1]; 10 ppm on wheat) was 6/50 (2×) and 8/50. For the same compound, the “F1 Progeny count No. dead/total” value ([1]; 10 ppm on wheat) was 3/446 and 0/444 and 3/487, the “14 day Adult Mortality No. dead/total” value ([1]; 25 ppm on wheat) was 50/50 and the “F1 Progeny count No. dead/total” value ([1]; 25 ppm on wheat) was 0/0. For the same compound, the “14 day Adult Mortality No. dead/total” value ([1]; 50 ppm on wheat) was 50/50, the “F1 Progeny count No. dead/total” value ([1]; 50 ppm on wheat) was 0/0 and the “14 day Adult Mortality No. dead/total” value ([1]; 100 ppm on wheat) was 50/50. The “F1 Progeny count No. dead/total” value ([1]; 100 ppm on wheat) was 0/0, the Live adult progeny ([1]; QRD14, 25 mg/kg, mean ± SE) was 0.0 ± 0.0 and the “Progeny reduction (%)” value ([1]; QRD14, 25 mg/kg) was 100%. For the same compound, the Live adult progeny ([1]; QRD14, 60 mg/kg, mean ± SE) was 0.0 ± 0.0, the “Progeny reduction (%)” value ([1]; QRD14, 60 mg/kg) was 100% and the mortality at 25 mg/kg ([1]; Rhyzopertha dominica, 336 h, QRD14, 25 mg/kg, 2 weeks, mean ± SE, read-out: Adult mortality (%)) was 98 ± 1.2%. For the same compound, the mortality at 60 mg/kg ([1]; Rhyzopertha dominica, 336 h, QRD14, 60 mg/kg, 2 weeks, mean ± SE, read-out: Adult mortality (%)) was 100%, the Live adult progeny ([2]; 25 mg/kg, mean ± SE) was 735.3 ± 60.6 and the Live adult progeny ([2]; 60 mg/kg, mean ± SE) was 355.3 ± 64.7. For the same compound, the “Progeny reduction (%)” value ([2]; 60 mg/kg) was 50.3%, the “Progeny reduction (%)” value ([2]; 60 mg/kg, listed as flavesone) was 50% and the mortality at 25 mg/kg [2, 7] was 1.3 ± 0.7%. For the same compound, the mortality at 60 mg/kg [2, 8] was 4 ± 1.2%, the Live adult progeny ([3]; 25 mg/kg, mean ± SE) was 265.3 ± 27.7 and the “Progeny reduction (%)” value ([3]; 25 mg/kg) was 17.4%. For the same compound, the Live adult progeny ([3]; 60 mg/kg, mean ± SE) was 204.3 ± 27.8, the “Progeny reduction (%)” value ([3]; 60 mg/kg) was 36.4% and the “Progeny reduction (%)” value ([3]; 60 mg/kg, listed as flavesone) was 36%. It also gave a mortality at 25 mg/kg [3, 9] of 0%, a mortality at 60 mg/kg [3, 10] of 0% and a Live adult progeny ([4]; 25 mg/kg, mean ± SE) of 120.0 ± 16.1. The Live adult progeny ([4]; 60 mg/kg, mean ± SE) was 65.0 ± 3.2, the “Progeny reduction (%)” value ([4]; 60 mg/kg) was 45.2% and the “Progeny reduction (%)” value ([4]; 60 mg/kg, listed as flavesone) was 45%. The mortality at 25 mg/kg [4, 9] was 0%, the mortality at 60 mg/kg [4, 10] was 0% and the LC50 ([5]; Myzus persicae, foliar, read-out: LC50 (mg a.i./L)) was 2730 µg/mL (≈ 10.8 mM). The “LC90 (mg a.i./L)” value [5] was 6,034 mg a.i./L, the “LC99 (mg a.i./L)” value [5] was 14,330 mg a.i./L and the Live adult progeny ([6]; 25 mg/kg, mean ± SE) was 572.7 ± 100.9. For the same compound, the “Progeny reduction (%)” value ([6]; 25 mg/kg) was 6.1%, the Live adult progeny ([6]; 60 mg/kg, mean ± SE) was 430.0 ± 51.0 and the “Progeny reduction (%)” value ([6]; 60 mg/kg) was 29.5%. For the same compound, the “Progeny reduction (%)” value ([6]; 60 mg/kg, listed as flavesone) was 29%, the mortality at 25 mg/kg [6, 7] was 0.7 ± 0.7% and the mortality at 60 mg/kg [6, 8] was 0.7 ± 0.7%.
